{"source": "ChEMBL document CHEMBL1144959", "about": "“Nonpeptide RGD antagonists: a novel class of mimetics, the 5,8-disubstituted 1-azabicyclo[5.2.0]nonan-2-one lactam” (Bioorg Med Chem Lett, 2003)", "data": [{"target": "Integrin alpha-5/beta-1 (Homo sapiens, UniProt P05556+P08648)", "sequence (P05556 21-798 limits assumed)": "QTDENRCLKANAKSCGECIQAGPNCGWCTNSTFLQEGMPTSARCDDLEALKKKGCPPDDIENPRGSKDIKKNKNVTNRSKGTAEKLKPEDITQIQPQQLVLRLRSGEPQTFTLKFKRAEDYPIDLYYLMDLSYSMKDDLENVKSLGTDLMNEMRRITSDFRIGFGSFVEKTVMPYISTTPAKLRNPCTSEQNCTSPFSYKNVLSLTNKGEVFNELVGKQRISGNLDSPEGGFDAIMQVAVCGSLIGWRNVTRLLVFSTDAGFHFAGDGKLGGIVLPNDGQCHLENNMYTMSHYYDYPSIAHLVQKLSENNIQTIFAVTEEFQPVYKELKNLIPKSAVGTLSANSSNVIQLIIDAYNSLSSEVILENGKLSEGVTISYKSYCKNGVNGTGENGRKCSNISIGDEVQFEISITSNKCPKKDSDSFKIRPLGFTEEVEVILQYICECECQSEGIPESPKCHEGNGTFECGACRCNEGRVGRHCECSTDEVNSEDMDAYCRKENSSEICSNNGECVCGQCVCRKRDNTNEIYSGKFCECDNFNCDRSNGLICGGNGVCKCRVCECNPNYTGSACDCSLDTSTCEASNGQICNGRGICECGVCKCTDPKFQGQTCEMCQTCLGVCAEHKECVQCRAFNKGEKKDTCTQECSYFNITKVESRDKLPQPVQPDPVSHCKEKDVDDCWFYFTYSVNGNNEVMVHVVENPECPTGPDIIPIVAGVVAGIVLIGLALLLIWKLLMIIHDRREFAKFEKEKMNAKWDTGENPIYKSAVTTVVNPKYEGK", "sequence (P08648 42-894 limits assumed)": "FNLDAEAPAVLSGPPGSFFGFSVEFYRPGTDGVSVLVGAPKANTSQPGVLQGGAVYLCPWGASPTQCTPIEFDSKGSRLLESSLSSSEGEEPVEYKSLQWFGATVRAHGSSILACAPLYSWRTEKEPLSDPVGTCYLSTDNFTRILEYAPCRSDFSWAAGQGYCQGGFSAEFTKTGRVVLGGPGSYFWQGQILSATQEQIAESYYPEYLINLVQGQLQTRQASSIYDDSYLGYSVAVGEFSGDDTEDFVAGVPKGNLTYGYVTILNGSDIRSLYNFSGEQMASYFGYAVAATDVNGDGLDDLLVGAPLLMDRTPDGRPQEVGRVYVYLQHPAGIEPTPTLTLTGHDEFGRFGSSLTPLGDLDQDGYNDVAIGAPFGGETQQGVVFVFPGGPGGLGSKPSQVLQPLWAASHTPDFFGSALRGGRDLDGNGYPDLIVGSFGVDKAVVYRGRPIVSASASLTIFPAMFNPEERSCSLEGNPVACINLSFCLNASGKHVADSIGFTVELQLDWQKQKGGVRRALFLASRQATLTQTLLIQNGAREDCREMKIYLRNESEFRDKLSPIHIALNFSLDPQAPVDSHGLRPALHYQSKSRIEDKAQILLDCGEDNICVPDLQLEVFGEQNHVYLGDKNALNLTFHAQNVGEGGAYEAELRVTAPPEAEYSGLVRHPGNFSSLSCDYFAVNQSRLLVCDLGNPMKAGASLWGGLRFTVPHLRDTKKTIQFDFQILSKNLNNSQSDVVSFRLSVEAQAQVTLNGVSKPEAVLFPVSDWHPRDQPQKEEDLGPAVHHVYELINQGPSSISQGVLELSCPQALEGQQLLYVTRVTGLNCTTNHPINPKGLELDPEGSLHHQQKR", "sequence (P08648 895-1049 limits assumed)": "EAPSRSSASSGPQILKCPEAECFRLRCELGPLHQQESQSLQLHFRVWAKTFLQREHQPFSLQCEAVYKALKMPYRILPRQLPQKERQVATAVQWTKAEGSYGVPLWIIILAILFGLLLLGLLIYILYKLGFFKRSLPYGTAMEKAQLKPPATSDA", "assay": "Inhibition of fibronectin (GST-3Fn8-11) binding to recombinant soluble mini integrin alpha5-beta1", "assay_type": "protein-complex assay", "units": {"IC50": "µM"}, "values": [{"smiles": "N=C(N)NCCCNC(=O)[C@H]1CCC(=O)N2C[C@H](CCC(=O)O)[C@H]2C1", "IC50": 65}, {"smiles": "N=C(N)NCCCNC(=O)C1CCC(=O)N2CC(CCC(=O)O)C2C1", "note": "(centres undefined)", "IC50": 1300}, {"smiles": "NC(N)=NCCC[C@H](N)C(=O)NCC(=O)N[C@@H](CC(=O)O)C(=O)N[C@@H](CO)C(=O)O", "IC50": 2.2}, {"smiles": "N=C(N)NCCCNC(=O)[C@@H]1CCC(=O)N2C[C@H](CCC(=O)O)[C@H]2C1", "IC50": 3100}]}]}
